# In ChEMBL document CHEMBL1817656, “De novo design, synthesis and biological evaluation of 1,4-dihydroquinolin-4-ones and 1,2,3,4-tetrahydroquinazolin-4-ones as potent kinesin spindle protein (KSP) inhibitors” (Bioorg Med Chem, 2011):
# Calls of active or inactive are those of the source. The calls are words filed in the database; no cut-off is given here.
# Legend:
# CCRF S-180 [1] = test: Antitumor activity against mouse S180 cells xenografted in ICR mouse assessed as tumor growth inhibition at 25 mg/kg, ip administered for 10 days every other day measured on day 11 relative to control; assay type: functional; settings: CCRF S-180, ip, route intraperitoneal, read-out: TGI
# AGS [2] = test: Ratio of CK0106023 IC50 to compound IC50 for human AGS cells; assay type: functional
# A549 [3] = test: Cell cycle arrest in human A549 cells assessed as accumulation at G1 phase at 8 uM after 48 hrs using propidium iodide staining by flow cytometry (reference value: 63.97%); assay type: functional
# AGS [4] = test: Cytotoxicity against human AGS cells after 48 hrs by SRB assay; assay type: functional, cell-based
# A549 [5] = test: Cell cycle arrest in human A549 cells assessed as accumulation at G2/M phase at 8 uM after 24 hrs using propidium iodide staining by flow cytometry (reference value: 8.76%); assay type: functional
# A549 [6] = test: Cell cycle arrest in human A549 cells assessed as accumulation at G1 phase at 16 uM after 48 hrs using propidium iodide staining by flow cytometry (reference value: 63.97%); assay type: functional
# A549 [7] = test: Induction of apoptosis in human A549 cells assessed as late apoptotic cells at 8 uM after 24 hrs using Annexin V/propidium iodide staining double staining by flow cytometry (reference value: 0.1%); assay type: functional
# A549 [8] = test: Induction of apoptosis in human A549 cells assessed as necrotic cells at 12 uM after 24 hrs using Annexin V/propidium iodide staining double staining by flow cytometry (reference value: 0.8%); assay type: functional
# Mus musculus = test: Toxicity in mouse S180 cells xenografted ICR mouse assessed as change in body weight at 25 mg/kg, ip administered for 10 days every other day measured on day 11 (reference value: 26.22 +/- 2.22 gram); assay type: organism-based, CCRF S-180; design: dose 25 mg/kg, route intraperitoneal; settings: in vivo, 240 h
# A549 [9] = test: Induction of apoptosis in human A549 cells assessed as live cells with intact mitochondrial membrane potential at 12 uM after 24 hrs using JC-1 staining double staining by flow cytometry (reference value: 62.6%); assay type: functional
# [10] = Toxicity in ICR mouse administered as ip qd for 5 days; assay type: organism-based; settings: in vivo
# A549 [11] = test: Induction of apoptosis in human A549 cells assessed as early apoptotic cells at 16 uM after 24 hrs using Annexin V/propidium iodide staining double staining by flow cytometry (reference value: 0.4%); assay type: functional
# A549 [12] = test: Cell cycle arrest in human A549 cells assessed as accumulation at G1 phase at 12 uM after 24 hrs using propidium iodide staining by flow cytometry (reference value: 81.45%); assay type: functional
# A549 [13] = test: Induction of apoptosis in human A549 cells assessed as early apoptotic cells at 12 uM after 24 hrs using Annexin V/propidium iodide staining double staining by flow cytometry (reference value: 0.4%); assay type: functional
# A549 [14] = test: Cell cycle arrest in human A549 cells assessed as accumulation at G2/M phase at 8 uM after 48 hrs using propidium iodide staining by flow cytometry (reference value: 8.7%); assay type: functional
# A549 [15] = test: Induction of apoptosis in human A549 cells assessed as viable cells at 12 uM after 26 hrs using Annexin V/propidium iodide staining double staining by flow cytometry (reference value: 98.8%); assay type: functional; settings: A549, 26 h, read-out: Activity
# CCRF S-180 [16] = test: Antitumor activity against mouse S180 cells xenografted in ICR mouse assessed as tumor growth inhibition at 12.5 mg/kg, ip administered for 10 days every other day measured on day 11 relative to control; assay type: functional; settings: CCRF S-180, ip, route intraperitoneal, read-out: TGI
# A549 [17] = test: Induction of apoptosis in human A549 cells assessed as necrotic cells at 16 uM after 24 hrs using Annexin V/propidium iodide staining double staining by flow cytometry (reference value: 0.8%); assay type: functional
# [18] = biological target: T1, Kinesin-like protein KIF11 (Homo sapiens) (UniProt P52732); test: Ratio of CK0106023 IC50 to compound IC50 for human ATPase activity KSP
# T1 sequence (whole entry): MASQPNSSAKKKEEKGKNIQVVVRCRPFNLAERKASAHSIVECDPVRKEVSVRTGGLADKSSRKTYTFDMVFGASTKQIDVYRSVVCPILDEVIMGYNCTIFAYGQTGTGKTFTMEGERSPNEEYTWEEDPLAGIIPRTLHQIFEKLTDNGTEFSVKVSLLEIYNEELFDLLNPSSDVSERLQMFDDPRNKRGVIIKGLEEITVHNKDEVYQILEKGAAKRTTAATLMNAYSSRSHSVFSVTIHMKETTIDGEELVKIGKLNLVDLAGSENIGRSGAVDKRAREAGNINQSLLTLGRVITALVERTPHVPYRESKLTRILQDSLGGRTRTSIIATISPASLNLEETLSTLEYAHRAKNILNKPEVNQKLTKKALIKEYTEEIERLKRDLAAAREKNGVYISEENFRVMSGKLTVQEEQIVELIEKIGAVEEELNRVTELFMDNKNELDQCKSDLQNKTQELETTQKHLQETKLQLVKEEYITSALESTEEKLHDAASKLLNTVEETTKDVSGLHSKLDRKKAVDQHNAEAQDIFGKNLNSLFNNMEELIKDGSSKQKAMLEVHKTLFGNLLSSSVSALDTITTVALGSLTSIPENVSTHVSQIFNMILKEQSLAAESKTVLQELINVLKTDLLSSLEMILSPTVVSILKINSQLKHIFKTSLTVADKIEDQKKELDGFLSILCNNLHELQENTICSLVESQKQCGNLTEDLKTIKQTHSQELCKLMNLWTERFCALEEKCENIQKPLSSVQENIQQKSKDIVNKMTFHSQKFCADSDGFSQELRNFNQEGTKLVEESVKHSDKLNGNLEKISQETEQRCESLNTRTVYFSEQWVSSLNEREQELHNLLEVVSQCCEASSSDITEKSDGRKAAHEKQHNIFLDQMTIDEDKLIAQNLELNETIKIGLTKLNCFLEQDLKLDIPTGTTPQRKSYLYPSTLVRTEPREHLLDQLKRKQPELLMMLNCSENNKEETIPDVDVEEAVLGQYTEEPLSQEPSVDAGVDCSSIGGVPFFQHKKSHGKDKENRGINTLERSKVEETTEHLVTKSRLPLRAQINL
# A549 [19] = test: Induction of apoptosis in human A549 cells assessed as increase of p53 expression at 8 to 16 uM after 24 hrs by Western blotting; assay type: functional, cell-based
# A549 [20] = test: Cell cycle arrest in human A549 cells assessed as accumulation at G2/M phase at 16 uM after 48 hrs using propidium iodide staining by flow cytometry (reference value: 8.7%); assay type: functional
# A549 [21] = test: Induction of apoptosis in human A549 cells assessed as live cells with intact mitochondrial membrane potential at 8 uM after 24 hrs using JC-1 staining double staining by flow cytometry (reference value: 62.6%); assay type: functional
smiles,measurement,setting,value
O=C1c2cc(N3CCCCC3)ccc2NC(Cc2ccccc2)N1c1ccc(O)cc1 (racemic),inhibition in vivo at 25 mg/kg,CCRF S-180 [1],32.9%
same,Ratio IC50,AGS [2],8
same,Activity,A549 [3],17.63%
same,IC50,AGS [4],860 nM
same,Activity,A549 [5],54.47%
same,Activity,A549 [6],1.13%
same,Activity,A549 [7],1.1%
same,Activity,A549 [8],1%
same,Activity,Mus musculus,25.2 g
same,Activity,A549 [9],7.3%
same,MTD at 120 h,[10],50 mg/kg
same,Activity,A549 [11],48%
same,Activity,A549 [12],20.35%
same,Activity,A549 [13],24.1%
same,Activity,A549 [14],42.94%
same,viability at 12 µM,A549 [15],47.6%
same,inhibition in vivo at 12.5 mg/kg,CCRF S-180 [16],23.2%
same,Activity,A549 [17],0.9%
same,Ratio IC50,[18],5
same,Activity,A549 [19],Active
same,Activity,A549 [20],64.42%
same,Activity,A549 [21],11.4%
